Measurements: patent publication US10654890B2, “Cyclic peptide derivative, method for preparing same and composition thereof” (priority 2014, dated 2020)
Counter-ions that a name gives are not always drawn.

Assays:
culture astrocyte = experiment: Astrocyte proliferative activity test (BrdU cell proliferation ELISA); assay type: cell-based, mouse
Experimental: A pregnant ICR female mouse was purchased from Japan SLC, Inc., and a neonatal mouse 24 to 48 after birth was used for the test.
A neonatal ICR mouse (24 to 48 after birth) was sufficiently sterilized with 70% ethanol, immersed in 30 ml of PBS (−) in a 100 mm dish (diameter of 100 mm, Orange Scientific) for cell culture, and then placed in a clean bench. The neonatal mouse was subjected to cervical dislocation using tweezers and euthanized. Head of the neonatal mouse was open and the entire brain was removed. The obtained brain was transferred to a 100 mm dish for cell culture in which 15 ml of high glucose Dulbecco's modified Eagle medium (HG-D-MEM, Wako Pure Chemical Industries, Ltd.) is added. By using tweezers, the olfactory bulb, median eminence, and meninges were removed in the medium to obtain only a cerebrum having hippocampus. Subsequently, the obtained cerebrum was transferred to a 100 mm dish for cell culture added with 10 ml of HG-D-MEM, and using a scalpel, the cerebrum was finely cut to be 1 mm^2 or less. The cerebrum after cutting was transferred, together with the medium, to a 50 ml conical tube (TPP), and after allowing it to stand for 2 minutes, the supernatant was removed. Subsequently, the cerebrum after cutting was added with 4 ml of fresh HG-D-MEM, and after further adding 400 μl of 2.5% trypsin (SIGMA) and 40 μl of 1% DNase I (SIGMA), the cerebrum was incubated in a water bath at 37° C. for 10 minutes under intermittent stirring. Subsequently, to the cerebrum after cutting, 10 ml of HG-D-MEM (10% FBS) was added to terminate the reaction of trypsin followed by centrifuge for 3 minutes at 1,000×g using a centrifuge (H-9R, KOKUSAN Co., Ltd.). The supernatant was collected by an electric pipette, 10 ml of HG-D-MEM (10% FBS) was added to a precipitated cell mass, and pipetting using a sterile pipette was carried out several times until the cell mass is not observed. To remove the remaining cell mass from this cell dispersion, the cell dispersion was passed through a cell strainer (pore diameter of 100 μm, BD Falcon™), and the number of cells in the cell dispersion which has passed through the cell strainer was counted by using a cell counting plate. An adjustment was made with HG-D-MEM (10% FBS) such that the number of cells is 6.0×10^5 cells/ml. After the adjustment of the number of cells, the cell dispersion was seeded, in an amount of 7 ml for each, to a Poly-D-Lysine Cellware 100 mm Dish (PDL 100 mm dish, BD Falcon™). 96 Hours after the seeding, the medium was removed once using an aspirator, and after briefly washing the inside of a 100 mm PDL dish with 10 ml of PBS (−), the medium exchange was carried out by newly adding 7 ml of HG-D-MEM. The above method and the astrocyte preparation described below were carried out based on the method of McCarthy and de Vellis (1980, Non Patent Literature 30).
72 Hours after the medium exchange, the 100 mm PDL dish seeded with the cell broth was removed from the incubator, and tightly covered using a parafilm and fixed by overlaying 3 to 4 dishes. The resultant was cultured by shaking using a bioshaker (MULTI SHAKER MMS, INCUBATOR FMS/EYELA) under a condition including 37° C., 100 rpm, and 20 hours, and the neuronal cells, cell debris, dead cells or the like were liberated. At that time, in the inside the 100 mm PDL dish, only the astrocyte as a glial cell in central nervous system other than neuron was adhered (hereinbelow, described as culture astrocyte). After the shaking, the 100 mm PDL dish was transferred to a clean bench, the supernatant was removed by an aspirator and washed with 10 ml of PBS (−), and after adding 1 ml of 2.5% trypsin (SIGMA) using a Pasteur pipette, the dish was left to stand in an incubator for 10 minutes. The 100 mm PDL dish was again brought back to the clean bench, and added with 10 ml of Dulbecco's modified Eagle medium (D-MEM, Wako Pure Chemical Industries, Ltd.) (10% FBS). […]

[1] = system: normal human dermal fibroblasts (NHDF); experiment: Cell proliferation test, normal human dermal fibroblasts; assay type: cell-based
Experimental: To see whether or not the astrocyte proliferation accelerating activity of the cyclic peptide derivative is a specific proliferative activity that is limited only to an astrocyte or it is based on a common cell proliferative activity, investigations were made by using normal human dermal fibroblasts (NHDF), human liver cancer cells (HepG2), and human leukemia cells (K562).
Seeding of each cell on a 96 well plate was carried out by adding 100 μl of a cell suspension in which normal human dermal fibroblasts are prepared at 2.5×10^4 cells/ml or human liver cancer cells and human leukemia cells are prepared at 5×10^4 cells/ml. Since the cyclic peptide derivative is added after dissolving it in PBS (−), only PBS (−) was added as a control.

SMILES	astrocyte proliferative activity (culture astrocyte; 25 μM, FIG. 8 and FIG. 9)	cytotoxicity for normal cells [1]	cell proliferation rate ([1]; 25 μM)	proliferation of NHDF cells compared to the group with no addition ([1]; 25 μM)	astrocyte proliferation compared to the control group (culture astrocyte; 25 μM, FIG. 7)	astrocyte proliferation accelerating activity (culture astrocyte; 0.1, 1, 5, 10, 25, and 50 μM, 24 hours exposure, FIG. 6)	astrocyte proliferative activity (culture astrocyte; extracts and fractions of the isolation and purification steps, listed as F3-10-4-5-3)	astrocyte proliferative activity (culture astrocyte; extracts and fractions of the isolation and purification steps, listed as F-3-10-4-5-3)
COc1cc2c(cc1OC)C(=O)C(CC1CCN(Cc3ccccc3)CC1)C2 (centres unmarked) [donepezil hydrochloride, reference compound]	no significant astrocyte proliferative activity was observed	–	–	–	–	–	–	–
CCC1(C)Oc2cc(ccc2O)C(O)C(NC)C(=O)NC(C(C)C)C(=O)NC1C(=O)NC(CCC(=O)O)C(=O)O (centres unmarked) [cyclic peptide derivative]	–	low	~80%	inhibited in a significant sense	about 12 times	observed with concentration dependency	significant astrocyte proliferative activity	containing the components with an astrocyte proliferative activity
